Consider eight compounds from patent US12491190B2, “Bile acid derivative, composition and application thereof” (SHENZHEN YUNHE PHARMACEUTICAL TECHNOLOGY PARTNERSHIP …, priority 2019, dated 2025).

Experiment [1] has as its system fat-induced obesity mouse model. The experiment can be described thus: High-fat diet induced obesity mouse model, triglyceride after 8 weeks of gavage. It counts as in vivo, mice. To be noted: for triglyceride levels versus simple high-fat diet group: 50 mg/kg/day by gavage with high-fat diet for 8 weeks; for liver triglyceride / serum triglyceride: after 8 weeks of intervention; for liver triglyceride: FIG. 2; for serum triglyceride: FIG. 3. As for the experimental part: In the fat-induced obesity mouse model, hyocholic acid and hyodeoxycholic acid were administered by gavage at a dose of 50 mg/kg/day while feeding high-fat diet (HFD) for 8 weeks. […] The increase of hyocholic acid and hyodeoxycholic acid in mice can effectively improve the dyslipidemia in mice caused by high fat.

Experiment [2] has as its system NCI-H716 cells. The experiment can be described thus: GLP-1 release into culture medium of NCI-H716 cells. To be noted: 50 μM, FIG. 5. It counts as cell-based. The procedure: NCI-H716 cells were cultured and treated with 50 μM hyocholic acid and hyocholic acid derivatives, and a reported TGR5 agonist INT-777, and the levels of GLP-1 in the cell culture medium were measured.

Experiment [3] concerns NCI-H716 and STC-1 cells. The experiment can be described thus: GLP-1 expression in enteroendocrine cell lines after 48 h bile acid treatment. It counts as cell-based. To be noted: 50 μM, through the action of TGR5 and FXR, FIG. 6. As for the experimental part:
NCI-H716 and STC-1 cells were treated with 50 μM hyocholic acid, hyodeoxycholic acid, taurohyodeoxycholic acid, glycohyodeoxycholic acid, taurohyocholic acid, glycohyocholic acid and 19 kinds of other bile acids for 48 hours. […] (a) GLP-1 transcription was measured using real-time PCR, see FIG. 6A. (b) GLP-1 secretion was measured using ELISA, see FIG. 6B. (c) NCI-H716 and STC-1 and TGR5 knockdown cells thereof were treated with 6 kinds of hyocholic acids for 24 h and intracellular GLP-1, p-CREB and total CREB were measured using western blotting. (d) FXR protein concentration in nuclear and cytoplasmic fractions ofNCI-H716 cells after 24 h treatment with 50 μM chenodeoxycholic acid or 5-cholic acid in the presence and absence of hyocholic acid. See FIG. 6E. * P<0.05, compared with the control.

For `C[C@H](CCC(=O)O)[C@H]1CC[C@H]2[C@@H]3[C@H](O)[C@H](O)[C@@H]4C[C@H](O)CC[C@]4(C)[C@H]3CC[C@]12C` [hyocholic acid], in experiment [1], the “triglyceride levels versus simple high-fat diet group” value is on record as “significantly lower”, the liver triglyceride entry is “significant decrease” and the serum triglyceride result was “significant decrease”. Moreover, the “release of GLP-1 (level in cell culture medium)” value (from here on “release”) in experiment [2] is reported as “effectively promote the release of GLP-1”. In addition, the “upregulating GLP-1 protein expression in enteroendocrine cell lines” value (“upregulating GLP-1 protein expression” below) in experiment [3] is listed as “more effective than other bile acids”. With `C[C@H](CCC(=O)NCCS(=O)(=O)O)[C@H]1CC[C@H]2[C@@H]3[C@H](O)[C@H](O)[C@@H]4C[C@H](O)CC[C@]4(C)[C@H]3CC[C@]12C.[Na]` [taurohyocholic acid], the “upregulating GLP-1 protein expression” value in experiment [3] is reported as “more effective than other bile acids”.

Regarding `CC[C@H]1[C@@H](O)[C@@H]2[C@H](C[C@H](O)[C@]3(C)[C@@H]([C@H](C)C[C@H](C)C(=O)O)CC[C@@H]23)[C@@]2(C)CC[C@@H](O)C[C@@H]12` [INT-777], the “release” value in experiment [2] is recorded as “effectively promote the release of GLP-1”.

Regarding `C[C@H](C[C@H](C)C(=O)O)[C@H]1CCC2C3C(CC[C@@]21C)[C@@]1(C)CC[C@@H](O)CC1[C@@H](O)[C@H]3O` (stereo partly drawn) [ZN-1-102-1, (S)-23-methyl hyocholic acid], the “release” value in experiment [2] was “superior to hyocholic acid and the existing TGR5 agonist INT-777”. `CC(CCC(=O)NCC(=O)O)C1CCC2C3CC(O)C4CC(O)CCC4(C)C3CCC12C` (stereo not drawn) [glycohyodeoxycholic acid]: the “upregulating GLP-1 protein expression” value in experiment [3] is reported as “more effective than other bile acids”. `C[C@H](CCC(=O)O)[C@H]1CC[C@H]2[C@@H]3C[C@H](O)[C@@H]4C[C@H](O)CC[C@]4(C)[C@H]3CC[C@]12C` [hyodeoxycholic acid]: in experiment [1], the “triglyceride levels versus simple high-fat diet group” value is reported as “significantly lower”, the liver triglyceride entry was “significant decrease” and the serum triglyceride result is recorded as “significant decrease”. Besides, in experiment [3], the “upregulating GLP-1 protein expression” value is given as “more effective than other bile acids”. Take `C[C@H](CCC(=O)NCC(=O)O)[C@H]1CC[C@H]2[C@@H]3[C@H](O)[C@H](O)[C@@H]4C[C@H](O)CC[C@]4(C)[C@H]3CC[C@]12C` [glycohyocholic acid]: in experiment [3], the “upregulating GLP-1 protein expression” value is “more effective than other bile acids”. On to `C[C@H](CCC(=O)NCCS(=O)(=O)[O-])[C@H]1CC[C@H]2[C@@H]3C[C@H](O)[C@@H]4C[C@H](O)CC[C@]4(C)[C@H]3CC[C@]12C.[Na+]` [taurohyodeoxycholic acid], for which, in experiment [3], the “upregulating GLP-1 protein expression” value is reported as “more effective than other bile acids”.
